In US10053451B2, “Heterocyclic estrogen receptor modulators and uses thereof” (priority 2015, dated 2018):
pIC50: −log10 of the molar value.

Legend:
ER-α = target: T1, ER-α (Homo sapiens, UniProt P03372); test: ER-α In Cell Western Assay; assay type: cell-based; conditions: MCF7 cells, 4 hours post compound addition, SP1 anti-ER antibody; read-out: ICW (SP1) max response
T1 construct: MCF7 cells were trypsinized and washed twice; endogenous in cells; host or cells: MCF7 breast cancer cells
T1 sequence (P03372 1-595): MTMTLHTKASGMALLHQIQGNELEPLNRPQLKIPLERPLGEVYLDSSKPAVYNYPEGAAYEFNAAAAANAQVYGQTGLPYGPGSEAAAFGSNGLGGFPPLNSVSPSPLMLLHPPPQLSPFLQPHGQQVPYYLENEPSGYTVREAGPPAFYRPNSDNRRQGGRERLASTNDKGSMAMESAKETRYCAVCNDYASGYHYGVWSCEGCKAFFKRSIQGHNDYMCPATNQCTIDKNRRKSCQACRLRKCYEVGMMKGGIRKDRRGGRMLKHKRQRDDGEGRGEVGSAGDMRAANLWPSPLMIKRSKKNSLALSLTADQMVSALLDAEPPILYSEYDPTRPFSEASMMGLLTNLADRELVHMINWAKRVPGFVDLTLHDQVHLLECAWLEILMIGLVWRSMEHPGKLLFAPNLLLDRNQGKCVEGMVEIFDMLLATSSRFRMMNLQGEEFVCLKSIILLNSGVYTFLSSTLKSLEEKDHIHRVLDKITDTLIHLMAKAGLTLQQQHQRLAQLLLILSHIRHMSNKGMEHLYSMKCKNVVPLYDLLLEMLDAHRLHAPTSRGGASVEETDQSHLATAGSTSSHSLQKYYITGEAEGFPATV
Description: MCF7 cells were trypsinized and washed twice in Phenol Red Free RPMI containing 5% Charcoal Dextran Stripped serum with 20 mM HEPES and NEAA, then adjusted to a concentration of 200,000 cells per mL with the same medium. Next, 16 μL of the cell suspension (3200 cells) was added to each well of a poly-D-lysine coated 384 well plate, and the cells were incubated at 37° C. over 4 days to allow the cells to adhere and grow. […] At 4 hours post compound addition, the cells were fixed by adding 16 μL of 30% formalin to the 32 μL of cells and compound (10% formalin final concentration) for 20 minutes. Cells were then washed twice with PBS Tween 0.1% and then permeabilized in PBS 0.1% Triton (50 μl/well) for additional 15 minutes. The PBS 0.1% triton was decanted, and the cells were washed: LI-COR blocking buffer (50 μL/well) was added, the plate was spun at 3000 rpm, and then the blocking buffer was decanted. Additional LI-COR blocking buffer (50 μL/well) was added, and the cells were incubated overnight at 4° C. The blocking buffer was decanted, and the cells were incubated overnight at 4° C. with SP1 (Thermo Scientific) anti-ER rabbit monoclonal antibody diluted 1:1000 in LI-COR blocking buffer/0.1% Tween-20. Wells which were treated with blocking buffer with Tween but no antibody were used as a background control. Wells were washed twice with PBS Tween 0.1% to remove free SP1 antibodies, and the cells were incubated at room temp for 60-90 minutes in LI-COR goat anti-rabbit IRDye™ 800CW (1:1000) and DRAQ5 DNA dye (1:10000 of 5 mM stock solution) diluted in LI-COR blocking buffer containing 0.1% Tween-20 and 0.01% SDS. Cells were then washed with 0.1% Tween-20/PBS three times. Plates were scanned on a LI-COR Odyssey infrared imaging system. Integrated intensities in the 800 nm channel and 700 nm channel were measured to determine levels of ER-α and DNA respectively. Percent ER levels were determined as follows: (Integrated intensity […] sample/integrated intensity 700 nm sample)/(Integrated intensity 800 nm untreated cells/integrated intensity 700 nm untreated cells)×100=% ER levels.

MCF-7 cells = test: Breast Cancer Cell Viability Assay (CellTiter-Glo); assay type: cell-based; conditions: 5 days of compound exposure; for pIC50: Homo sapiens, MCF7, 120 h, read-out: MCF7 viab IC50
Description: The following day a 10 point, serial 1:5 dilution of each compound was added to the cells in 16 μL at a final concentration ranging from 10-0.00000 μM. After 5 days of compound exposure, 16 μL of CellTiter-GLo (Promega, Madison Wis.) was added to the cells, and the relative luminescence units (RLUs) of each well were determined. CellTiter-Glo added to 32 μL of medium without cells was used to obtain a background value.

Structure (SMILES)	Emax (ER-α) [%]	pIC50 (MCF-7 cells)	MCF7 viab max response (MCF-7 cells)
CC1=C(c2cccc(O)c2)C(c2ccc(OCCN3CCCC3)cn2)Oc2ccc(O)cc21 (stereo not drawn) [Example 6, 3-(3-Hydroxyphenyl)-4-methyl-2-(5-(2-(pyrrolidin-1-yl)ethoxy)pyridin-2-yl)-2H-chromen-6-ol]	69.9	8.15	56.9
CC1=C(c2cc(O)c(F)c(F)c2)C(c2ccc(OC[C@H](C)N3CC[C@@H](C)C3)cn2)Oc2ccc(O)cc21 (stereo partly drawn) [Example 7, 3-(3,4-Difluoro-5-hydroxyphenyl)-4-methyl-2-(5-((S)-2-((R)-3-methylpyrrolidin-1-yl)propoxy)pyridin-2-yl)-2H-chromen-6-ol]	87.1	8.89	72.1
CC1=C(c2ccc(O)cc2)C(c2ccc(OC[C@H](C)N3CC[C@@H](C)C3)cn2)Oc2ccc(O)cc21 (stereo partly drawn) [Example 8, 3-(4-Hydroxyphenyl)-4-methyl-2-(5-((S)-2-((R)-3-methylpyrrolidin-1-yl)propoxy)pyridin-2-yl)-2H-chromen-6-ol]	85.9	8.87	69.3
CC1=C(c2ccc(O)c(F)c2)C(c2ccc(OC[C@H](C)N3CC[C@@H](C)C3)cn2)Oc2ccc(O)cc21 (stereo partly drawn) [Example 9, 3-(3-Fluoro-4-hydroxyphenyl)-4-methyl-2-(5-((S)-2-((R)-3-methylpyrrolidin-1-yl)propoxy)pyridin-2-yl)-2H-chromen-6-ol]	88	8.99	71.6
CC1=C(c2ccc3cn[nH]c3c2)C(c2ccc(OC[C@H](C)N3CC[C@@H](C)C3)cc2)Oc2ccc(O)cc21 (stereo partly drawn) [Example 11, 3-(1H-Indazol-6-yl)-4-methyl-2-(4-((S)-2-((R)-3-methylpyrrolidin-1-yl)propoxy)phenyl)-2H-chromen-6-ol]	74.1	7.77	55.8
CC1=C(c2ccc3[nH]ncc3c2)C(c2ccc(OC[C@H](C)N3CC[C@@H](C)C3)cc2)Oc2ccc(O)cc21 (stereo partly drawn) [Example 12, 3-(1H-Indazol-5-yl)-4-methyl-2-(4-((S)-2-((R)-3-methylpyrrolidin-1-yl)propoxy)phenyl)-2H-chromen-6-ol]	74.8	8.59	60.1
C[C@]12CC[C@@H]3c4ccc(O)cc4C[C@@H](CCCCCCCCC[S+]([O-])CCCC(F)(F)C(F)(F)F)[C@H]3[C@@H]1CC[C@@H]2O (stereo partly drawn) [fulvestrant, reference compound]	93.6	9.25	74.6

Further lines, with some results ahead:

Emax (ER-α) [%]	pIC50 (MCF-7 cells)	Structure (SMILES)	MCF7 viab max response (MCF-7 cells)
83.4	9.13	CC1=C(c2ccc(O)cc2F)C(c2ccc(OC[C@H](C)N3CC[C@@H](C)C3)cn2)Oc2ccc(O)cc21 (stereo partly drawn) [Example 10, 3-(2-Fluoro-4-hydroxyphenyl)-4-methyl-2-(5-((S)-2-((R)-3-methylpyrrolidin-1-yl)propoxy)pyridin-2-yl)-2H-chromen-6-ol]	70.9
85.1	9.05	CC1=C(c2cccc3[nH]ncc23)C(c2ccc(OC[C@H](C)N3CC[C@@H](C)C3)cc2)Oc2ccc(O)cc21 (stereo partly drawn) [Example 13, 3-(1H-Indazol-4-yl)-4-methyl-2-(4-((S)-2-((R)-3-methylpyrrolidin-1-yl)propoxy)phenyl)-2H-chromen-6-ol]	65.9
77.8	9.08	CC1=C(c2cccc(O)c2)C(c2ccc(OC[C@H](C)N3CC[C@@H](C)C3)cc2)Oc2ccc3[nH]ncc3c21 (stereo partly drawn) [Example 14, 3-(9-Methyl-7-(4-((S)-2-((R)-3-methylpyrrolidin-1-yl)propoxy)phenyl)-3,7-dihydropyrano[3,2-e]indazol-8-yl)phenol]	62.3
79.5	9.34	CC1=C(c2cccc(O)c2)C(c2ccc(OC[C@H](C)N3CC[C@@H](C)C3)cc2)Oc2c1ccc1[nH]ncc21 (stereo partly drawn) [Example 15, 3-(4-Methyl-2-(4-((S)-2-((R)-3-methylpyrrolidin-1-yl)propoxy)phenyl)-2,7-dihydropyrano[2,3-e]indazol-3-yl)phenol]	65.6
